Two compounds from patent US12371428B2 (Exelixis, Inc., priority 2019, dated 2025) can be followed below.

Test [1] has as its target KDR (phospho-KDR, VEGF165-stimulated HUVEC cells) (Homo sapiens (Human), UniProt P35968). Put plainly: KDR autophosphorylation ELISA in HUVEC cells (Example G). It counts as cell-based. The settings on record: cellular activity; KDR autophosphorylation ELISA in HUVEC cells. In a few lines: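 First, endothelial cells were cultured a day, then kept without serum for another day. Next came 1 h with serially diluted compound, a brief 5 min VEGF165 stimulus (100 ng/mL), rapid lysis, and ELISA detection of receptor phosphorylation relative to stimulated and non-stimulated controls.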

For test [2], the target named is Met (phospho-Met, HGF-stimulated PC-3 prostate cancer cells) (Homo sapiens (Human), UniProt P08581). Nature of the test: Met autophosphorylation ELISA in PC-3 cells (Example F). Format: cell-based. The settings on record: cellular activity; Met autophosphorylation ELISA in PC-3 cells; read-out: c-Met IC50. In a few lines:
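Compounds were tested on HGF-stimulated PC-3 cells. After 24 h culture and 3 h serum starvation, cells got compound for 1 h and 100 ng/mL HGF for 10 min, and Met tyrosine phosphorylation was measured by ELISA.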
(In an ELISA, binding on a coated surface is turned into a signal by an enzyme label.)

Test [3] deals with AXL (phospho-AXL, Gas6-stimulated A-172 glioblastoma cells) (Homo sapiens (Human), UniProt P30530). Put plainly: AXL autophosphorylation ELISA in A-172 cells (Example E). Conditions: cellular activity; AXL autophosphorylation ELISA in A-172 cells; read-out: Axl IC50. It counts as cell-based. In short, it runs like this:
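Phospho-AXL was measured by ELISA in lysates of Gas6-stimulated A-172 cells, starved 24 h in serum-free medium and exposed 1 h to an 8-point compound dilution at 0.3% DMSO.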

Test [4] has as its target Human MET (residues 956-1390) (Homo sapiens (Human), UniProt P08581). Put plainly: Human Met kinase assay, HTRF KinEase (Example D-2). Format: biochemical. The settings on record: read-out: c-Met IC50. In short, it runs like this:
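IC50 values come from a 4-parameter logistic fit of the […] fluorescence ratio, set between DMSO (100%) and reference compound at 1 μM (0%). Reactions held MET 956-1390 at 0.1 ng/well, ATP at Km, biotinylated peptide, 5 mM MgCl2, 1 mM MnCl2, 1 mM DTT and 3% DMSO, and ran 40 min at room temperature before streptavidin-XL665/Eu-antibody detection.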

For test [5], the target named is Mer (phospho-Mer, MERTK-transfected 293A cells) (Homo sapiens (Human), UniProt Q12866). Put plainly: Mer autophosphorylation ELISA in transient transfected 293A cells (Example H). Format: cell-based. Conditions: cellular activity; Mer autophosphorylation ELISA in transient transfected 293A cells. In a few lines: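 IC50 from 4-parameter logistic fit of phospho-Mer levels, quantified by ELISA against a phospho-Mer standard in lysates of MERTK-transfected 293A cells. Cells exposed 1 h to 8-point serial dilutions, serum-free, 0.3% DMSO; controls: DMSO (100%) and reference inhibitor (0%).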

Where two headings read alike, the source gives them in different places. Bounds are passed on as bounds.

Chain of KDR (phospho-KDR, VEGF165-stimulated HUVEC cells) (P35968 20-1356): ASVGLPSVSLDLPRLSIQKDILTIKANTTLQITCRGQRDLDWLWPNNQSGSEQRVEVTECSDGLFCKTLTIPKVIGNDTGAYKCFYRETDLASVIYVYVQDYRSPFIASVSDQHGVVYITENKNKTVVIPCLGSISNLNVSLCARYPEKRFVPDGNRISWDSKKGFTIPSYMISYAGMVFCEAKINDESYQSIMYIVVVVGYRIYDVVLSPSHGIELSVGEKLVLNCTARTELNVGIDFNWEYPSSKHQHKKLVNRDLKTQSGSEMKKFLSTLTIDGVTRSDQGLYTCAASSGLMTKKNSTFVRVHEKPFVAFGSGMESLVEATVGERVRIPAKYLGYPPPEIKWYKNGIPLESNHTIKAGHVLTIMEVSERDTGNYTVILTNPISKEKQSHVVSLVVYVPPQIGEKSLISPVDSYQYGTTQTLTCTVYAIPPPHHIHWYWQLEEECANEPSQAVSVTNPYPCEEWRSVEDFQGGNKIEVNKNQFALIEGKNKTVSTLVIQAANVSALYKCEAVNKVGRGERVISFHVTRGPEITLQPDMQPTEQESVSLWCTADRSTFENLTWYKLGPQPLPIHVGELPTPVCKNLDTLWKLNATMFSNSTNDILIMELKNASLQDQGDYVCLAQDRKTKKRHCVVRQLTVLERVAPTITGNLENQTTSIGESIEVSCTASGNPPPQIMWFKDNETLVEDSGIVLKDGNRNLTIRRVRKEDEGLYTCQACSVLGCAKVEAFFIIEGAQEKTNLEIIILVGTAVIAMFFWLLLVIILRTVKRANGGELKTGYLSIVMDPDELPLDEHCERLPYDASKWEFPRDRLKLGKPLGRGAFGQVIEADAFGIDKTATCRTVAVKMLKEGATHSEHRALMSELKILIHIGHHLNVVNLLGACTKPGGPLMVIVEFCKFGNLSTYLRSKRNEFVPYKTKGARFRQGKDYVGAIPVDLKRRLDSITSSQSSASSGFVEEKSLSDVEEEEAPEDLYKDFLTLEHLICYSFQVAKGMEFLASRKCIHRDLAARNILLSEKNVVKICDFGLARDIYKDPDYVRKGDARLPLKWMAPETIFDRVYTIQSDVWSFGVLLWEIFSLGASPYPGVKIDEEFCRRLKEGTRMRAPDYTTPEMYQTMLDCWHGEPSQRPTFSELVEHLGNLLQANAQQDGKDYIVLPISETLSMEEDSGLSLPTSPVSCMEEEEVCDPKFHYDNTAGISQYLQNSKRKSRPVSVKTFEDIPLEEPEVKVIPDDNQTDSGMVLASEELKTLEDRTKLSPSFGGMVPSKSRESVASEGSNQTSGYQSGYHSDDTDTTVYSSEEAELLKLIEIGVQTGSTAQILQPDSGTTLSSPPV
Chain of Mer (phospho-Mer, MERTK-transfected 293A cells) (Q12866 21-999): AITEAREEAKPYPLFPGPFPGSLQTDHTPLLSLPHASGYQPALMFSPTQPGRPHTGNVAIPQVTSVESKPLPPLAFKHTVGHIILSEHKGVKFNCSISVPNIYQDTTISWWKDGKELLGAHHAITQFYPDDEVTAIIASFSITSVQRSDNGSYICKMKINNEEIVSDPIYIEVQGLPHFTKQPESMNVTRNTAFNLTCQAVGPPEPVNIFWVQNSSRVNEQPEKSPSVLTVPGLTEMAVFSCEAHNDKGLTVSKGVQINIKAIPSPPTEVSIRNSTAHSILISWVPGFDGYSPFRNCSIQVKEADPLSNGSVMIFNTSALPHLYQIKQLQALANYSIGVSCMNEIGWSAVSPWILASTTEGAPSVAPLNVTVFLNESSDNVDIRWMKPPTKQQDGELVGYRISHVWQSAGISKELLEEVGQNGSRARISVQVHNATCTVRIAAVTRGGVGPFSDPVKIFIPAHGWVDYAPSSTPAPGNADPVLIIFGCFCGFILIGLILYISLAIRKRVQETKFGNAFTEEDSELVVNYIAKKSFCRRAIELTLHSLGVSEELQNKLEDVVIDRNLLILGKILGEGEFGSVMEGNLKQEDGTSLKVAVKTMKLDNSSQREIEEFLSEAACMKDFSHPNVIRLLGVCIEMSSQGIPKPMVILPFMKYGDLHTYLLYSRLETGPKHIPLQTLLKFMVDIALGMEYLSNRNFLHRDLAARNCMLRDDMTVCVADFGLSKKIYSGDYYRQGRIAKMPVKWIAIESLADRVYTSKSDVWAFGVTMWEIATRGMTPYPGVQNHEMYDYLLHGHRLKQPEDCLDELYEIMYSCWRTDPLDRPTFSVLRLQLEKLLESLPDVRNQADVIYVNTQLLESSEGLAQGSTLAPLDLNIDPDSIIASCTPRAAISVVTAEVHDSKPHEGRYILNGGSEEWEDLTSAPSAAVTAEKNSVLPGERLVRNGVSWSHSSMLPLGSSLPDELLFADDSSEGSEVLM
Chain of Met (phospho-Met, HGF-stimulated PC-3 prostate cancer cells) (P08581 25-1390): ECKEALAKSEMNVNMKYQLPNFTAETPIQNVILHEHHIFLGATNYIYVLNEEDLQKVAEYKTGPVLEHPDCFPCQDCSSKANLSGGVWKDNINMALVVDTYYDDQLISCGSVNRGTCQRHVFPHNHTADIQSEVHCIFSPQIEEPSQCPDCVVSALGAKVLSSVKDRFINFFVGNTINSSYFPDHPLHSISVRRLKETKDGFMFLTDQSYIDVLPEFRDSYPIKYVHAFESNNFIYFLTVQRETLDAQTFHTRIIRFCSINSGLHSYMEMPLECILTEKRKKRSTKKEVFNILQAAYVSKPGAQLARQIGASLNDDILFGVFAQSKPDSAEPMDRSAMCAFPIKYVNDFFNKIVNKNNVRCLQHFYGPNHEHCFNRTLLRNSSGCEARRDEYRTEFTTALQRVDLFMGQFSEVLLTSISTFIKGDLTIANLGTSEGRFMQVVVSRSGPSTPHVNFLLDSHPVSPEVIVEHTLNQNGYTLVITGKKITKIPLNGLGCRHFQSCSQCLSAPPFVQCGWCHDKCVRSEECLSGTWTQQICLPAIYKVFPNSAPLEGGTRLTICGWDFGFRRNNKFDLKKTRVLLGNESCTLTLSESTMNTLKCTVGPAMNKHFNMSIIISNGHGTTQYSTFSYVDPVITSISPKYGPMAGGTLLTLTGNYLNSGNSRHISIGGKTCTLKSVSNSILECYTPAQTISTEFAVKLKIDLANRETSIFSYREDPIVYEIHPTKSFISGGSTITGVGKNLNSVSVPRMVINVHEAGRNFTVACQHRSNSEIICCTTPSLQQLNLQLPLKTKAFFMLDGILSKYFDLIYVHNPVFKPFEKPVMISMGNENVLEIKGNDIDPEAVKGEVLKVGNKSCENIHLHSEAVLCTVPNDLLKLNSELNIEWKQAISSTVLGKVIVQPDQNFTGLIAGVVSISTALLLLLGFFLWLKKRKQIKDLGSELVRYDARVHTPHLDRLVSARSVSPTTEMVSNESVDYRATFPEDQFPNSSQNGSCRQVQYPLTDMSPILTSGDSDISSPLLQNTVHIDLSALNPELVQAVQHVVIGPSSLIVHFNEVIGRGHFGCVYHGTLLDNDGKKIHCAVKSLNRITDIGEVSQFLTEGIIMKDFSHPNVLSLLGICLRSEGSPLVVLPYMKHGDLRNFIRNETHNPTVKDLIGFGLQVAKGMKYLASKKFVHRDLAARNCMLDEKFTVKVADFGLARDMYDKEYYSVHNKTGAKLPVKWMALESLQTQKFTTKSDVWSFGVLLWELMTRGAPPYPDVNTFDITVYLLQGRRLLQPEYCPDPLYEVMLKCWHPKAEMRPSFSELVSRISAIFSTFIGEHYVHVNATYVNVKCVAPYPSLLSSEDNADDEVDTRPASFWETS
Chain of Human MET (residues 956-1390) (P08581 956-1390): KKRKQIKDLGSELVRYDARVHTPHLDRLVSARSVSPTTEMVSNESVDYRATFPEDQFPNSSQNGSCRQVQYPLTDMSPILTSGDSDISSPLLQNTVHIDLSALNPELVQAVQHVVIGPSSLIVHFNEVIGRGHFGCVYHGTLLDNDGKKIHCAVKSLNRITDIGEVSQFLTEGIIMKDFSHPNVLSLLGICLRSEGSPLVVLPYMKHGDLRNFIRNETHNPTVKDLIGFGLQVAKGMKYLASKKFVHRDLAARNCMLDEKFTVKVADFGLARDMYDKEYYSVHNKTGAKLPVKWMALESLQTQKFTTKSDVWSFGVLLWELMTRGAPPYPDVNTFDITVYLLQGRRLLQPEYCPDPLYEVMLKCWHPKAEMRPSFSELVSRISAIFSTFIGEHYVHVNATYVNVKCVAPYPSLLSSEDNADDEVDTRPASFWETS
Chain of AXL (phospho-AXL, Gas6-stimulated A-172 glioblastoma cells) (P30530 26-894): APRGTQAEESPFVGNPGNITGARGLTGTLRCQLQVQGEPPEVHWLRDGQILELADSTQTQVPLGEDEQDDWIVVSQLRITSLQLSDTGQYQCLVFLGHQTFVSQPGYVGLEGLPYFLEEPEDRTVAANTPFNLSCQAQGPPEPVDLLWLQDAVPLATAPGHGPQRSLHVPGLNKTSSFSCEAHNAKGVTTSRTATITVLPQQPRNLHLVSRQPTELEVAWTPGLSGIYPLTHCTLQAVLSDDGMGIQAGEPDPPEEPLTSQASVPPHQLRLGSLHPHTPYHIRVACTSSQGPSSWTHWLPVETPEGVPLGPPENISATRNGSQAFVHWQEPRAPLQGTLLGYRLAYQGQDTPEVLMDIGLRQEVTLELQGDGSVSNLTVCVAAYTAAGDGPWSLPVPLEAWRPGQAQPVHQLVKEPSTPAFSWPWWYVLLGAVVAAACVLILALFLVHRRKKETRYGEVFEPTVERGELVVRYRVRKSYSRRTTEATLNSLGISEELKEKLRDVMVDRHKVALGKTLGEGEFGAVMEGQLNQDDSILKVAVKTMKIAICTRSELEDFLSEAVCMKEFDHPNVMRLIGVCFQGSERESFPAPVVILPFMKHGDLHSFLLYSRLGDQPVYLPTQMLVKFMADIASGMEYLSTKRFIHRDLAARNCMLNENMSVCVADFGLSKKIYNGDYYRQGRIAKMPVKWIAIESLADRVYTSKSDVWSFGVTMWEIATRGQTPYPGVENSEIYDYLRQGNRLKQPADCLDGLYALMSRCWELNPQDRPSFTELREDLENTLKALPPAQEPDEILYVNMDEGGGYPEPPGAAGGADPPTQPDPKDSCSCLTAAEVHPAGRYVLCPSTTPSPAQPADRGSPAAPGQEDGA

As a reminder, the IC50 is the concentration that gives 50% inhibition. Turning to `COc1cc2nccc(Oc3ccc(NC(=O)c4cn(C5CNC5)cc(-c5ccc(F)cc5)c4=O)cc3F)c2nc1OC` [Compound 576, 1-(Azetidin-3-yl)-N-[4-[(6,7-dimethoxy-1,5-naphthyridin-4-yl)oxy]-3-fluorophenyl]-5-(4-fluorophenyl)-4-oxopyridine-3-carboxamide], the IC50 in test [1] was over 300 nM; in test [2] it was under 100 nM; in test [3], under 100 nM; in test [4] (protocol of Example D-2), under 100 nM; in test [5] it was under 100 nM.

As to `COc1cc2nccc(Oc3ccc(NC(=O)c4cn(C5CN(C)C5)cc(-c5ccc(F)cc5)c4=O)cc3F)c2nc1OC` [Compound 52, N-[4-[(6,7-Dmethoxy-1,5-naphthyridin-4-yl)oxy]-3-fluorophenyl]-5-(4-fluorophenyl)-1-(1-methylazetidin-3-yl)-4-oxopyridine-3-carboxamide], the IC50 in test [1] is over 300 nM; in test [2], under 100 nM; in test [3], under 100 nM; in test [4] (protocol of Example D-2 (other compounds)), under 100 nM; in test [5] it was under 100 nM.
